Test results as given in patent publication US8765779B2, “Tricyclic derivatives and their pharmaceutical use and compositions” (Cephalon, Inc., priority 2009, dated 2014).

Target: T1, human 5-HT6 receptor (Homo sapiens, UniProt P50406)
T1 construct: host or cells: CHO-K1 cells, stably transfected; membranes prepared in house
Assay: Human 5-HT6 Receptor Binding Assay ([3H]LSD displacement, scintillation beads)
Details: membranes of CHO-K1 cells with recombinant human 5-HT6, 4 nM [3H]LSD; Table 1, class symbols; read-out: h5-HT6 (Ki)
Procedure: Human 5-HT6 Receptor Binding Assay
Membranes were prepared from CHO—K1 cells stably transfected with the human 5-HT6 receptor (Euroscreen; ES-316-C). The cells were grown in Gibco Advanced DMEM-F12 (Cat#12634010) containing 2% dialyzed FBS (Hyclone Cat#SH30079.03). The cells were harvested in phosphate buffered saline (PBS) containing 0.1 mM EDTA and pelleted by centrifugation (1000×g), the supernatant was discarded and the pellets were stored at −80° C. prior to membrane preparation. Membranes were prepared as previously described (J Bio Chem. 1992, 267 (14) 9844-51). Briefly, frozen cell pellet was resuspended in a lysis buffer containing 5 mM Tris-HCl (pH 7.5), 5 mM EDTA and 1 complete EDTA-free protease inhibitor tablet (Roche Applied Science, Indianapolis, Ind.) per 50 mL buffer, and homogenized with a tissue homogenizer. The cell lysate was then centrifuged at 40,000×g for 30 min at 4° C. to collect the membranes. The membrane pellets were washed in membrane buffer (50 mM Tris-HCl (pH 7.5), 0.6 mM EDTA, 5 mM MgCl2, 1 complete EDTA-free protease inhibitor tablet per 50 mL buffer) using a tissue homogenizer. The membranes were centrifuged at 40,000×g for 30 min at 4° C. and the pellets were resuspended in membrane buffer containing 250 mM sucrose, and protein concentration was determined using the Coomassie Plus kit (Pierce Biotechnology, Rockford, Ill.).
Membranes prepared from cells expressing recombinant human 5-HT6 receptor (h5-HT6) were resuspended in assay buffer containing 50 mM Tris HCl, (pH7.4), 4 mM CaCl2, 10 μg/mL saponin, and 0.1% (w/v) ascorbic acid. Membranes were preincubated using 1.75 μg membrane protein and 0.25 mg FlashBlue scintillation beads (PerkinElmer catalogue #FB001) per well at 4° for 30 min. […] Test compounds or assay controls for total and non-specific binding were diluted in DMSO as 100× solutions and serially diluted by half log concentrations on a Perkin Elmer JANUS Automated Workstation. Serotonin (10 μM final concentration) was used to determine non-specific binding in the assay. Plates were read using the Microbeta Trilux 1450 LSC and luminescence counter. Data were analyzed by nonlinear […] using the dose-response equation (variable slope) to calculate IC50 in XLfit4 (ID Business Solutions Inc.): y=(Bottom+((Top−Bottom)/(1+((IC50/x)^Hill slope))))
Ki value was then calculated according to the Cheng-Prusoff method using the equation below (Cheng and Prusoff, 1973): Ki,app=IC50/(1+[radioligand]/Kd))

T1 sequence (P50406 whole entry): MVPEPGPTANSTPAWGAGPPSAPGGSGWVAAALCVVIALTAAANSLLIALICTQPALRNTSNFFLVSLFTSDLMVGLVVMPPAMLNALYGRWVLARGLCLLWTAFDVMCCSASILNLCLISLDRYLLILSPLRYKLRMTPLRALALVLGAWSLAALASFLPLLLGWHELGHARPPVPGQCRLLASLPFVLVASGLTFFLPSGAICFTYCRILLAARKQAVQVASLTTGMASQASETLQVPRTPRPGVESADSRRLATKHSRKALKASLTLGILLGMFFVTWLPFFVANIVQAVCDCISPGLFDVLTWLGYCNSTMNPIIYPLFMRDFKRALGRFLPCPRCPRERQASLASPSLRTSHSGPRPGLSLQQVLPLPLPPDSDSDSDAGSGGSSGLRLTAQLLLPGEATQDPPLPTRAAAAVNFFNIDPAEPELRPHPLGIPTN

Ki [µM]	Structure (SMILES)
< 0.5	O=S(=O)(Oc1ccc2c(c1)OC1CNCCC21)c1ccc(-c2cnco2)cc1 (centres unmarked) [Example 672]
0.5 to 1	COc1cccc(S(=O)(=O)Oc2ccc3c(c2)C2CCNCC2O3)c1 (centres unmarked) [Example 708]
< 0.5	CC(C)Oc1cccc(S(=O)(=O)c2ccc3c(c2)OC2CNCCC32)c1F (centres unmarked) [Example 483]
< 0.5	CC(C)Oc1cccc(S(=O)(=O)c2ccc3c4c(oc3c2)CNCC4)c1 [Example 217]
< 0.5	CC1(C(F)(F)F)NCCc2c1oc1cc(S(=O)(=O)c3cccc(F)c3)ccc21 (racemic) [Example 37, 7-[(3-fluorophenyl)sulfonyl]-1-methyl-1-(trifluoromethyl)-1,2,3,4-tetrahydro[1]benzofuro[2,3-c]pyridine]
< 0.5	CC1(CO)NCCc2c1oc1cc(S(=O)(=O)c3ccccc3)ccc21 (centres unmarked) [Example 525]
> 1	O=S(=O)(Cc1ccccc1)Nc1ccc2c(c1)C1CCNCC1O2 (centres unmarked) [Example 831]
< 0.5	CC(C)Oc1cccc(S(=O)(=O)c2ccc3c(c2)OC2CNCCC32)c1 (centres unmarked) [Example 159]
< 0.5	CC1(C)NCCc2c1oc1cc(S(=O)(=O)c3cccc4c3OCCO4)ccc21 [Example 466]
< 0.5	COCC1NCCc2c1oc1cc(S(=O)(=O)c3cccc(F)c3)ccc21 (centres unmarked) [Example 498]
< 0.5	CC1(C)CNC2(CCOCC2)c2oc3cc(S(=O)(=O)c4cccc(F)c4)ccc3c21 [Example 2, 7-[(3-fluorophenyl)sulfonyl]-4,4-dimethyl-2′,3,3′,4,5′,6′-hexahydro-2H-spiro[1-benzofuro[2,3-c]pyridine-1,4′-pyran]]
< 0.5	Cc1ccc(F)cc1S(=O)(=O)c1ccc2c3c(oc2c1)CNCC3 [Example 206]
< 0.5	CN(C)C(=O)CC1(C)NCCc2c1oc1cc(S(=O)(=O)c3cccc(F)c3)ccc21 (single isomer, unassigned) [Example 51, 2-{7-[(3-fluorophenyl)sulfonyl]-1-methyl-1,2,3,4-tetrahydro[1]benzofuro[2,3-c]pyridin-1-yl}-N,N-dimethylacetamide]
< 0.5	O=S(=O)(c1cccc(Cl)c1)c1ccc2c3c(oc2c1)C(C1CCOC1)NCC3 (centres unmarked) [Example 521]
< 0.5	CC1(C)NCCc2c1oc1cc(S(=O)(=O)c3cncc(Br)c3)ccc21 [Example 367]
< 0.5	CC(C)Oc1ncccc1[S+]([O-])c1ccc2oc3c(c2c1)CCNC3 (centres unmarked) [Example 446]
< 0.5	COc1c(F)cc(F)cc1S(=O)(=O)c1ccc2c3c(oc2c1)C(C)(C)NCC3 [Example 470]
< 0.5	O=S(=O)(Oc1ccc2c(c1)OC1CNCCC21)c1ccc(-c2ccccc2)cc1 (centres unmarked) [Example 681]
< 0.5	O=S(=O)(c1cccc(OCC2CCOCC2)c1)c1ccc2c(c1)OC1CNCCC21 (centres unmarked) [Example 570, 7-{[3-(tetrahydro-2H-pyran-4-ylmethoxy)phenyl]sulfonyl}-1,2,3,4,4a,9a-hexahydro[1]benzofuro[2,3-c]pyridine]

Ki [µM]	Structure (SMILES)
< 0.5	O=S(=O)(c1cccc(F)c1)c1ccc2c3c(oc2c1)C1(CCOC1)NCC3 (single isomer, unassigned) [Example 52, 7-[(3-fluorophenyl)sulfonyl]-3,4,4′,5′-tetrahydro-2H-spiro[1-benzofuro[2,3-c]pyridine-1,3′-furan]]
< 0.5	O=S(=O)(c1cccc(F)c1)c1ccc2oc3c(c2c1)CCN1CCC31 (centres unmarked) [Example 619]
> 1	CNC(=O)c1c(F)cccc1S(=O)(=O)c1ccc2c(c1)OC1CNCCC21 (centres unmarked) [Example 477]
< 0.5	O=S(=O)(c1cc(F)cc(Cl)c1)c1ccc2oc3c(c2c1)CCNC3 [Example 255]
< 0.5	CC1OCCC12NCCc1c2oc2cc(S(=O)(=O)c3cccc(F)c3)ccc12 (single isomer, unassigned) [Example 59, 7-[(3-Fluorophenyl)sulfonyl]-2′-methyl-3,4,4′,5′-tetrahydro-2H-spiro[1-benzofuro[2,3-c]pyridine-1,3′-furan]]
> 1	CC(=O)Nc1ccc(S(=O)(=O)Oc2ccc3c(c2)OC2CNCCC32)cc1 (centres unmarked) [Example 667]
< 0.5	COCC1NCCc2c1oc1cc(S(=O)(=O)c3cccc(Cl)c3)ccc21 (centres unmarked) [Example 502]
< 0.5	O=S(=O)(c1ccc2c(c1)OC1CNCCC21)c1cccc(F)c1F (centres unmarked) [Example 388]
< 0.5	Cc1cc(S(=O)(=O)c2ccc3c(c2)OC2CNCCC32)ccc1F (centres unmarked) [Example 137]
> 1	CN(C)C(=O)c1c(F)cccc1S(=O)(=O)c1ccc2c(c1)OC1CNCCC21 (centres unmarked) [Example 476]
< 0.5	CC1(C)CNC2(CCOC2)c2oc3cc(S(=O)(=O)c4ccccc4)ccc3c21 (centres unmarked) [Example 295]
< 0.5	COc1cncc(S(=O)(=O)c2ccc3c4c(oc3c2)CNCC4(C)C)c1 [Example 451]
< 0.5	O=S(=O)(c1ccccc1Cl)c1cccc2c1OC1CNCCC21 (centres unmarked) [Example 183]
< 0.5	Cc1cc(COc2cccc(S(=O)(=O)c3ccc4c(c3)OC3CNCCC43)c2)no1 (centres unmarked) [Example 565]
< 0.5	O=S(=O)(c1cc(F)cc(F)c1)c1ccc2oc3c(c2c1)CCNC3 [Example 256]
0.5 to 1	O=S(=O)(c1ccc2c(c1)C1CCNCC1O2)N1CCC(c2ccccc2)CC1 (centres unmarked) [Example 861]
< 0.5	Cc1c(S(=O)(=O)Oc2ccc3c(c2)OC2CNCCC32)sc2ccc(Cl)cc12 (centres unmarked) [Example 687]
< 0.5	O=S(=O)(c1ccc(Cl)cc1)c1cccc2c1OC1CNCCC21 (centres unmarked) [Example 188]
< 0.5	O=S(=O)(Oc1ccc2c(c1)OC1CNCCC21)c1cc(Cl)cc(Cl)c1 (centres unmarked) [Example 677]

Ki [µM]	Structure (SMILES)
> 1	COc1cccc(NS(=O)(=O)c2ccc3c(c2)C2CCNCC2O3)c1 (centres unmarked) [Example 850]
< 0.5	Cc1ccc(S(=O)(=O)Oc2ccc3c(c2)C2CCNCC2O3)cc1C (centres unmarked) [Example 706]
< 0.5	O=S(=O)(c1ccc(Cl)cc1)c1ccc2c(c1)OC1CNCCC21 (centres unmarked) [Example 322]
< 0.5	COc1cc(OC)cc(S(=O)(=O)c2ccc3c(c2)OC2CNCCC32)c1 (centres unmarked) [Example 480]
< 0.5	O=S(=O)(c1cccc(OC(F)(F)F)c1)c1ccc2c(c1)OC1CNCCC21 (centres unmarked) [Example 160, 7-{[3-(trifluoromethoxy)phenyl]sulfo-nyl}-1,2,3,4,4a,9a-hexahydro[1]benzofuro[2,3-c]pyridine]
< 0.5	[O-][S+](c1ccc2c3c(oc2c1)CNCC3)c1c(F)c(F)cc(F)c1F (centres unmarked) [Example 224]
< 0.5	O=S(=O)(c1cccc(OCc2ccncc2)c1)c1ccc2c(c1)OC1CNCCC21 (centres unmarked) [Example 561]
< 0.5	COc1cc(OC(C)C)cc(S(=O)(=O)c2ccc3c(c2)OC2CNCCC32)c1 (centres unmarked) [Example 78]
< 0.5	O=S(=O)(c1cc(F)cc(OCC2CCOCC2)c1)c1ccc2c(c1)OC1CNCCC21 (centres unmarked) [Example 591]
< 0.5	CC(C)CC1(C)NCCc2c1oc1cc(S(=O)(=O)c3cccc(F)c3)ccc21 (racemic) [Example 36, 7-[(3-fluorophenyl)sulfonyl]-1-methyl-1-(2-methylpropyl)-1,2,3,4-tetrahydro[1]benzofuro[2,3-c]pyridine]
< 0.5	O=S(=O)(Oc1ccc2c(c1)C1CCNCC1O2)c1ccc2ccccc2c1 (centres unmarked) [Example 721]
< 0.5	O=S(=O)(Oc1ccc2c(c1)C1CCNCC1O2)c1cc2ccccc2o1 (centres unmarked) [Example 713]
< 0.5	O=S(=O)(c1ccc2c3c(oc2c1)[C@]1(CCOC1)NCC3)c1cc(F)ccc1F (single isomer, unassigned) [Example 111]
< 0.5	O=S(=O)(c1ccc2c(c1)OC1CNCCC21)c1ccc2ccccc2c1 (centres unmarked) [Example 122]
< 0.5	O=S(=O)(Oc1ccc2c(c1)OC1CNCCC21)c1ccc2c(c1)OCCO2 (centres unmarked) [Example 668]
0.5 to 1	CC(=O)NCCC1NCCc2c1oc1ccc(S(=O)(=O)c3cccc(F)c3)cc21 (centres unmarked) [Example 532, N-(2-{6-[(3-fluorophenyl)sulfonyl]-1,2,3,4-tetrahydro[1]benzofuro[2,3-c]pyridin-1-yl}ethyl)acetamide]
< 0.5	CC1(C)CNCc2oc3cc(S(=O)(=O)c4ccccc4)ccc3c21 [Example 286]
< 0.5	CC(C)Oc1ncccc1S(=O)(=O)c1ccc2c3c(oc2c1)CNCC3 [Example 439]
< 0.5	O=S(=O)(Oc1ccc2c(c1)C1CCNCC1O2)c1cccc(Cl)c1 (centres unmarked) [Example 710]

Structure (SMILES)	Ki [µM]
Cc1c(S(=O)(=O)Oc2ccc3c(c2)C2(C)CCNCC2O3)sc2ccc(Cl)cc12 (centres unmarked) [Example 783]	0.5 to 1
CC12CCN(CCc3ccccc3)CC1Oc1ccc(OS(=O)(=O)Cc3ccccc3)cc12 (centres unmarked) [Example 811]	> 1
